From patent EP0326134A1, “4-Amino-2,3-disubstituted-6,7-dihydro-5H-1-pyridine derivatives, process for their preparation and medicaments containing them” (NAUCHNO-ISSLEDOVATELSKY INSTITUT TEKHNOLOGII I BEZOPASNOSTI …, priority 1988, dated 1989)

What was measured:
[1] = system: Nerven-Muskel-Präparat von Mäusen (n.peroneus-m.extensor digitorum longus); assay: Neuromuscular transmission in isolated nerve-muscle preparation (EPP, minEPP); conditions: for Stimulierung der Nerven-Muskelübertragung, in % der Amplitude: EPP: EPP = Endplattenpotential
Excerpt: Der Einfluß der Stoffe auf die Nerven-Muskei-Übertragung wurde am isolierten Nerven-Muskel-Präparat von Mäusen (n.peroneus-m.extensor digitorum longus) (s. Bhattacharyya B. et al. "Neuromuscular blocking action of two hemicholinium-3 analogs" Europ. J. Pharmac. 146, 155-165 /1988/) untersucht, das von Lilly-Lösung perfundiert wurde, durch die man ein Gemisch von 02 und C02 leitete. […] Das Endplattenpotential (EPP) und das Endplattenminiaturpotential (minEPP) wurden mit Hilfe eines Magnetografen aufgezeichnet und danach mit dem Computer ausgewertet. Ermittelt wurden die Frequenz (f), die Amplitude (A) und die Dauer (t) der minEPP und der EPP (s. Tabelle 2).

[2] = system: durch Skopolamin hervorgerufene Amnesie; assay: Dark avoidance assay (passive avoidance), scopolamine-induced amnesia; assay type: in vivo, Mäusen; conditions: mice, compound s.c. 5 min before learning, Skopolamin i.p. 30 min before
Description: Die Mäuse wurden dabei in den hellen Abschnitt der Kammer gegeben, wonach die Latenzzeit für den Übertritt in die dunkle Kammer, in der die Tiere einem Stromschlag von 0,5 mA ausgesetzt waren, registriert wurde. Danach erhöhte sich die Latenzzeit für den Übertritt in den dunklen Abschnitt und verringerte sich die Aufenthaltsdauer. 30 Minuten vor dem Versuch wurden den Mäusen i.p. […] Gedächtnisstörungen hervorrufendes Skopolamin als Cholinblocker injiziert. Die erfindungsgemäßen Verbindungen wurden s.c. 5 Minuten vor dem Lernvorgang injiziert. Das Skopolamin verkürzt die Latenzzeit für den Übertritt in die dunkle Kammer, die erfindungsgemäßen Verbindungen stellen jedoch die Latenzzeitwerte wie bei der Kontrollgruppe wieder her oder bedingen ein geringfügiges Überschreiten dieser Werte (siehe Tabelle 2). Gleichzeitig wird die Aufenthaltsdauer der Tiere im dunklen Abschnitt der Kammer auf 36 bis 45 Hundertstel des Ausgangswerts verringert.

[3] = system: Calciumchlorid-Arrhythmie-Modells; assay: Calcium chloride arrhythmia model (250 mg/kg): ventricular fibrillation, survival; assay type: in vivo, Ratten; conditions: rats, calcium chloride 250 mg/kg
Excerpt: (§1) Die antiarrhythmische Wirkung der erfindungsgemäßen Verbindungen wurde in zwei Versuchsserien untersucht, und zwar an isolierten Präparaten des rechten Vorhofs von Kaninchen und mit Hilfe des Calciumchlorid-Arrhythmie-Modells an Ratten. In den Versuchen an den isolierten Präparaten des rechten Vorhofs wurden mit Hilfe von Mikroelektroden die Dauer des AP sowie der Refraktärzeit (R) und die maximale Hemmung (e) und der Parameter (e/R) untersucht, durch den die Anfälligkeit des Myokards gegenüber der Entstehung von Arrhythmien gekennzeichnet wird. In den Versuchen an Ratten wurden diesen Calciumchlorid in einer Dosierung von 250 mg/kg injiziert. Registriert wurden das Vorliegen von Kammerflimmern und die Lebensdauer der Tiere. Sämtliche erfindungsgemäßen Verbindungen üben eine mäßige antiarrhythmische Wirkung aus. Sie steigern die Refraktärzeit des Muskels und des AP um 35 bis 145 % und verringern gleichzeitig die Anfälligkeit des Myokards, ausgedrückt durch den Parameter e/R um 10 bis 80 % (s. Tabelle 4). In bezug auf diese Wirkung waren die Salze der bicyclischen Basen wirksamer als Amyridin. Bezüglich des Vermögens, die Tiere vor Kammerflimmern und vor dem Tod nach Verabreichung von 250 mg/kg Calciumchlorid zu schützen, waren diese Verbindungen ebenfalls am stärksten wirksam. Bei Verwendung des Calciumchlorid-Arrhythmie-Modells waren viele erfindungsgemäßen Verbindungen stärker wirksam als das klassische Antiarrhythmikum Chinidin (s. M.D. Ma s kovskij, Lekarstvennye sredstva, Bd. 1, S. 401, Moskau, Medicina, 1984).

[4] = Side effects and CNS/behaviour: tremor (TD50), sedative and m-cholinomimetic effects; assay type: in vivo; conditions: for Verhältnis TD50 zu ED50: ED50 = dose blocking the effect of Skopolamin in 50 % of the animals (passive avoidance, mice)
Excerpt: Von Interesse ist der Einfluß der erfindungsgemäßen Verbindungen auf das ZNS und das Verhalten der Tiere.

[5] = system: Wirkung von Hexenal; assay: Influence on the effect of Hexenal; assay type: in vivo, Mäusen; conditions: mice
[6] = Acute toxicity, single intraperitoneal injection, probit analysis (LD50); assay type: in vivo, Mäusen; conditions: mice, i.p.
Excerpt: Ihre akute Toxizität wurde an Mäusen (einmalige intraperitoneale Injektion) nach der Methode der Probit-Analyse nach Zichtfield, Wilcoxon, t949 untersucht. In Tabelle 2 sind die Parameter der akuten Toxizität (LDso) angegeben, die eine mäßige Toxizität der erfindungsgemäßen Verbindungen belegen.

[7] = system: Orientierungsaktivität; assay: Influence on orientation activity; assay type: in vivo, Mäusen; conditions: mice
Excerpt: Von Interesse ist der Einfluß der erfindungsgemäßen Verbindungen auf das ZNS und das Verhalten der Tiere. Alle Verbindungen zeigen eine Kombination von stimulierenden und sedativen Eigenschaften und bei höheren Dosen auch eine m-cholinomimetische Wirkung, wobei Tremor, Speichelfluß und Diarrhoe ausgelöst werden.

[8] = system: isolierten Präparaten des rechten Vorhofs von Kaninchen; assay: Antiarrhythmic effect on isolated right atrium preparations (microelectrodes: AP duration, refractory period R, e/R); conditions: isolated right atrium of rabbit; for Antiarrhythmische Wirkung: Verlängerung d. Refraktärzeit (R), in %: microelectrodes
Excerpt: as §1

[9] = system: Zahl der Krämpfe; assay: Writhing test (intraperitoneal acetic acid); assay type: in vivo, Mäusen; conditions: male mice
Excerpt: Die analgetische Wirkung der erfindungsgemäßen Verbindungen wurde an männlichen Mäusen anhand des "Krampf"-Tests (Writhing-Tests) unter intraperitonealer Injizierung von Essigsäure und des Hot-plate-Tests untersucht. Im ersten Falle wurde die analgetische Wirkung der Verbindungen anhand der prozentualen Verringerung der Zahl der Krämpfe ermittelt. Beim zweiten Test wurde die Schwelle der Schmerzempfindlichkeit (Ablecken der Pfoten) bestimmt. Die stärkste analgetische Wirkung der erfindungsgemäßen Verbindungen zeigte sich beim "Krampf"-Test. Dabei übertrafen die Salze der bicyclischen Basen Amyridin, aber nicht alle erfindungsgemäßen Verbindungen waren schwächer als Morphin (s. Tabelle 4).

[10] = molecular target: T1, Acetylcholinesterase menschlicher Erythrozyten (Homo sapiens, UniProt P22303); assay: Acetylcholinesterase inhibition, spectrophotometric; assay type: biochemical; conditions: Acetylcholinesteraseinhibierung bei menschlichen Erythrozyten IK, (Mol), human erythrocyte enzyme
T1 construct: Acetylcholin-esteraseinhi-bierung bei menschlichen Erythrozyten; from tissue; host or cells: human erythrocytes
T1 sequence (P22303 other isoform, or with tags, fused parts or gaps): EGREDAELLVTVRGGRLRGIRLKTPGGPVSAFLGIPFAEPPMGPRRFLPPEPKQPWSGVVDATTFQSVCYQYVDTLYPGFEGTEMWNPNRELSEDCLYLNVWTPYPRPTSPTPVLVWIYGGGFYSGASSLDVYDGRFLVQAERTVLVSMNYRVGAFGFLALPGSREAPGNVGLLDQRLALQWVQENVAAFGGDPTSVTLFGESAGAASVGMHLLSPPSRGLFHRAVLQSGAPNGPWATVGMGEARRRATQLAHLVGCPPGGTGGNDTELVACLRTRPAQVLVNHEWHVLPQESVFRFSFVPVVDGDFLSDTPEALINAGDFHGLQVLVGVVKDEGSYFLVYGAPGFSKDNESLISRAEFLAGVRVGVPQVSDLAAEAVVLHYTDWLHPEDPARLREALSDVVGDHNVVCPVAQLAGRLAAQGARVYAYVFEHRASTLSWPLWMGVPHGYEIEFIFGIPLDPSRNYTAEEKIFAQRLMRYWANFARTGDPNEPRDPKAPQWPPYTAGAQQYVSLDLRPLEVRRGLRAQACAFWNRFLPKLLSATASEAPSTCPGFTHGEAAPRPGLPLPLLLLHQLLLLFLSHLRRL
Excerpt: Untersucht wurden die Wirkmechanismen der erfindungsgemäßen Verbindungen: • 1. Die Wirkung auf Acetylcholinesterase menschlicher Erythrozyten auf spektrofotometrischem Wege. • 2.

[11] = toxic dose causing tremor in 50 % of the animals

Compound: Cc1nc2c(c(N)c1C)CCC2 [Verbindung 6]
- Stimulierung der Nerven-Muskelübertragung, in % der Amplitude: EPP [1]: 35%
- Stimulierung der Nerven-Muskelübertragung, in % der Amplitude: minEPP [1]: 80%
- Einfluß auf das Gedächtnis: Zahl der Tiere in %, bei denen die Skopolaminwirkung aufgehoben wurde [2]: 60%
- Antiarrhythmische Wirkung: Verlängerung d. Lebensdauer von Ratten an Hand des CaCl2-Arrhythmie-Modells, in % [3]: 130%
- Verhältnis TD50 zu ED50 [4]: 10
- TD50 ([4]; in vivo, toxic dose causing tremor in 50 % of the animals): 10 mg/kg
- Änderung der Dauer der Seitenlage, in %: Hexenal 60 mg/kg [5]: +20%
- LD50 [6]: 35 mg/kg
- Änderung der Orientierungsaktivität, in % [7]: -20%
- Antiarrhythmische Wirkung: Verlängerung d. Refraktärzeit (R), in % [8]: 100%
- Analgetische Wirkung: Abnahme d. Zahl der "Krämpfe" bei Mäusen, in % [9]: 70%
- Ki [10]: 400 nM

Compound: Cc1nc2c(c(N)c1C)CCC2 [Verbindung 15]
- Stimulierung der Nerven-Muskelübertragung, in % der Amplitude: EPP [1]: 40%
- Stimulierung der Nerven-Muskelübertragung, in % der Amplitude: minEPP [1]: 75%
- Einfluß auf das Gedächtnis: Zahl der Tiere in %, bei denen die Skopolaminwirkung aufgehoben wurde [2]: 72%
- Antiarrhythmische Wirkung: Verlängerung d. Lebensdauer von Ratten an Hand des CaCl2-Arrhythmie-Modells, in % [3]: 110%
- Verhältnis TD50 zu ED50 [4]: 6,8
- TD50 (Tremor) [4, 11]: 7 mg/kg
- Änderung der Dauer der Seitenlage, in %: Hexenal 60 mg/kg [5]: +30%
- LD50 [6]: 16 mg/kg
- Änderung der Orientierungsaktivität, in % [7]: -15%
- Antiarrhythmische Wirkung: Verlängerung d. Refraktärzeit (R), in % [8]: 90%
- Analgetische Wirkung: Abnahme d. Zahl der "Krämpfe" bei Mäusen, in % [9]: 65%
- Ki [10]: 650 nM

Compound: Cc1nc2c(c(N)c1C)CCC2 [Verbindung 5]
- Stimulierung der Nerven-Muskelübertragung, in % der Amplitude: EPP [1]: 40%
- Stimulierung der Nerven-Muskelübertragung, in % der Amplitude: minEPP [1]: 90%
- Einfluß auf das Gedächtnis: Zahl der Tiere in %, bei denen die Skopolaminwirkung aufgehoben wurde [2]: 60%
- Antiarrhythmische Wirkung: Verlängerung d. Lebensdauer von Ratten an Hand des CaCl2-Arrhythmie-Modells, in % [3]: 130%
- Verhältnis TD50 zu ED50 [4]: 13
- TD50 (Tremor) [4, 11]: 9 mg/kg
- Änderung der Dauer der Seitenlage, in %: Hexenal 60 mg/kg [5]: 0%
- LD50 [6]: 25 mg/kg
- Änderung der Orientierungsaktivität, in % [7]: -10%
- Antiarrhythmische Wirkung: Verlängerung d. Refraktärzeit (R), in % [8]: 110%
- Analgetische Wirkung: Abnahme d. Zahl der "Krämpfe" bei Mäusen, in % [9]: 90%
- Ki [10]: 660 nM

Compound: Cc1nc2c(c(N)c1C)CCC2 [Verbindung 12, 4-Amino-2,3-dimethyl-6,7-dihydro-5H-1-pyrindinfumarat]
- Stimulierung der Nerven-Muskelübertragung, in % der Amplitude: EPP [1]: 32%
- Stimulierung der Nerven-Muskelübertragung, in % der Amplitude: minEPP [1]: 70%
- Einfluß auf das Gedächtnis: Zahl der Tiere in %, bei denen die Skopolaminwirkung aufgehoben wurde [2]: 50%
- Antiarrhythmische Wirkung: Verlängerung d. Lebensdauer von Ratten an Hand des CaCl2-Arrhythmie-Modells, in % [3]: 130%
- Verhältnis TD50 zu ED50 [4]: 8
- TD50 (Tremor) [4, 11]: 7 mg/kg
- Änderung der Dauer der Seitenlage, in %: Hexenal 60 mg/kg [5]: +30%
- LD50 [6]: 15 mg/kg
- Änderung der Orientierungsaktivität, in % [7]: -15%
- Antiarrhythmische Wirkung: Verlängerung d. Refraktärzeit (R), in % [8]: 110%
- Analgetische Wirkung: Abnahme d. Zahl der "Krämpfe" bei Mäusen, in % [9]: 90%
- Ki [10]: 520 nM

Compound: 4-Amino-2,3-dimethyl-6,7-dihydro-5H-1-pyrindinsalicylat [Verbindung 8]
- Stimulierung der Nerven-Muskelübertragung, in % der Amplitude: EPP [1]: 40%
- Stimulierung der Nerven-Muskelübertragung, in % der Amplitude: minEPP [1]: 75%
- Einfluß auf das Gedächtnis: Zahl der Tiere in %, bei denen die Skopolaminwirkung aufgehoben wurde [2]: 70%
- Antiarrhythmische Wirkung: Verlängerung d. Lebensdauer von Ratten an Hand des CaCl2-Arrhythmie-Modells, in % [3]: 190%
- Verhältnis TD50 zu ED50 [4]: 6
- TD50 (Tremor) [4, 11]: 8 mg/kg
- Änderung der Dauer der Seitenlage, in %: Hexenal 60 mg/kg [5]: 0%
- LD50 [6]: 17 mg/kg
- Änderung der Orientierungsaktivität, in % [7]: 0%
- Antiarrhythmische Wirkung: Verlängerung d. Refraktärzeit (R), in % [8]: 100%
- Antiarrhythmische Wirkung: Abnahme d. Parameters θ/R, in % ([8]; parameter marks susceptibility of the myocardium to arrhythmia): 58%
- Analgetische Wirkung: Abnahme d. Zahl der "Krämpfe" bei Mäusen, in % [9]: 70%

Compound: Cc1nc2c(c(N)c1C)CCC2 [Verbindung 17]
- Stimulierung der Nerven-Muskelübertragung, in % der Amplitude: EPP [1]: 43%
- Stimulierung der Nerven-Muskelübertragung, in % der Amplitude: minEPP [1]: 75%
- Einfluß auf das Gedächtnis: Zahl der Tiere in %, bei denen die Skopolaminwirkung aufgehoben wurde [2]: 72%
- Verhältnis TD50 zu ED50 [4]: 7,1
- TD50 (Tremor) [4, 11]: 10 mg/kg
- LD50 [6]: 24 mg/kg
- Ki [10]: 390 nM
